This note sets out measurements from patent US7122360B1, “Polypeptides, polynucleotides and uses thereof” (University of Dundee, priority 1998, dated 2006).

Entries after “also recorded” stand apart in the source; their conditions may differ.

The subject of experiment [1] is CREB. In words: NGF-induced phosphorylation of CREB in PC12 cells. In kind it is cell-based. The note with it: 50 μM PD 98059, 10 μM SB 203580, 5 μM Ro 318220, NGF 30 ng/ml 15 min. The method, then: (§1) Immunoblotting for phosphorylated CREB and ATF1. Cell extracts were prepared and immunoblotting of these carried out as described (Tan et al., 1996) using a phosphospecific antibody recognizing CREB phosphorylated on Ser 133 and ATF1 phosphorylated on Ser63 purchased from UBI (Lake Placid, USA). Detection of phosphorylated CREB and ATF1 proteins was performed using the enhanced chemiluminescence reagent (Amersham).

Experiment [2] deals with CREB. In words: Arsenite and FGF-induced phosphorylation of CREB in SK-N-MC cells. In kind it is cell-based. The note with it: for FGF-induced phosphorylation of CREB: 50 μM PD 98059, 10 μM SB 203580, FGF 50 ng/ml 15 min. The method, then: FIG. 14. […] After cell lysis aliquots were assayed for either MSK1 (A), MAPKAP-K1 (B), MAPKAP-K2 (C) after their immunoprecipitation from the lysates or immunoblotted for phosphorylation of CREB and ATF1 (D).
as §1

For experiment [3], the system named is MSK1. In words: LPS-induced activation of MSK1 in RAW 264 macrophages. In kind it is cell-based, mouse. The note with it: for LPS-stimulated phosphorylation of MSK1: 50 μM PD 98059 or 10 (M SB203580), FIG. 15; for LPS-induced activation of MSK1: LPS 100 ng/ml 1 h, 10 μM UO 126, 10 μM SB 203580, 5 TM Ro 318220. The procedure: FIG. 15. […] After cell lysis aliquots were assayed for either MSK1 (A), MAPKAP-K1 (B), MAPKAP-K2 (C) after their immunoprecipitation from the lysates or immunoblotted for phosphorylation of CREB and ATF1 (D).
FIG. 18. Effect of inhibitors on the LPS-induced activation of protein kinases in RAW 264 macrophages. Macrophages were incubated for 1 h in the presence or absence 10 μM UO 126 (U) and/or 10 μM SB 203580 (SB), or 5 TM Ro 318220 (Ro), then stimulated for 1 h with or without 100 ng/ml LPS in the continued presence or absence of the inhibitors. MSK1(A), MSK2 (B), MAPKAP-KI (C) and MAPKAP-K2 (D) were then assayed after immunoprecipitation from the lysates.
(§2) Cell culture and stimulation. RAW 264 macrophages were maintained in a 95% air/5% CO2 atmosphere in Dulbecco's modified Eagle's medium (DMEM) plus 10% (v/v) heat-inactivated foetal calf serum, 100 U/ml penicillin, […] streptomycin. The day before stimulation, the macrophages were plated at a density of 2×10^6 cells per 6 cm plate and 2 h before stimulation, the medium removed and replaced with 2 ml of DMEM. Where indicated, […] (10 TM) and/or PD 98059 (50 Tm), or U0126 (10 TM) or Ro 318220 (5 TM), were added 1 h before stimulation.
Cell lysis. After stimulation, the medium was aspirated and the cells were solubilized in 0.2 ml of ice cold lysis buffer (50 mM Tris-acetate pH 7.0, 1 mM EDTA, 1 mM EGTA, 1% (w/v) Triton X-100, 1 mM sodium orthovanadate, 10 mM sodium glycerophosphate, 50 mM NaF, 5 mM sodium pyrophosphate, 0.27 M sucrose, 2 TM microcystin-LR, 1 mM benzamidine, 0.1% (v/v) 2-mercaptoethanol and “complete” proteinase inhibitor cocktail—one tablet per 50 ml). The samples were then snap frozen in liquid nitrogen and stored in aliquots at −80° C. until analysis. Protein concentrations were determined according to [7].

Experiment [4] has as its system COX-2 protein. In words: Induction of COX-2 protein in RAW 264 macrophages, immunoblot. Type of experiment: cell-based, mouse. The note with it: LPS 100 ng/ml 4 h, 50 TM PD 98059, 10 TM SB 203580, 5 TM Ro 318220. The method, then:
FIG. 20. […] (A) Macrophages were stimulated for the times indicated with LPS (100 ng/ml).
FIG. 22. […] (A) Macrophages were stimulated for 1 h with LPS (100 ng/ml) or for 15 min with forskolin (F) (20 TM) plus IBMX (10 TM). After cell lysis, aliquots of the lysate (30 Tg protein) were immunoblotted with a phospho-specific CREB antibody (see legend to FIG. 19 for details and molecular mass markers). (B) Macrophages were stimulated for 3 h with LPS (100 ng/ml), or forskolin (20 TM) plus IBMX (10 TM), and immunoblotting performed with a specific COX-2 antibody (materials & methods section). The marker proteins are as in FIG. 19.
as §2
Immunoblotting. For immunoblotting of CREB, nuclear cell extracts were prepared as described and immunoblotting performed using a phospho-specific antibody recognising CREB phosphorylated on Ser 133 and ATF1 phosphorylated on Ser 63. For immunoblotting of COX-2, cell lysate (30 Tg protein) was denatured in SDS, electrophoresed on 10% polyacrylamide gel, transferred to a nitrocellulose membrane, and immunoblotted with anti-COX-2 antibody (1.0 mg/ml). Detection of phosphorylated CREB and ATF1 and COX-2 was performed using the enhanced chemiluminescence reagent (ECL).
For orientation: Immunoblotting shows a protein as a band on a membrane.

Experiment [5] deals with COX-2 mRNA. The experiment can be described thus: COX-2 gene transcription in RAW 264 macrophages, RT-PCR. The note with it: LPS 3 h, PD 98059 (50 TM), SB 203580 (10 TM), Ro 318220 (5 TM). Type of experiment: cell-based, mouse. The procedure: (§3) FIG. 21. Effect of PD 98059 and SB 203580 on gene transcription in RAW 264 macrophages. (A) Cells were stimulated for the times indicated with LPS (100 ng/ml). Total RNA was extracted at each time point and mRNA encoding IL-1, COX-2 and HRPT was determined using the reverse transcriptase polymerase chain reaction (Section 2.6). (B) As in A, except that the macrophages were incubated for 1 h in the presence or absence of PD 98059 (50 TM) and/or SB 203580 (10 TM), or Ro 318220 (5 TM), then stimulated for 3 h in the absence or presence of LPS, and in the continued presence or absence of the inhibitors. RTPCR was performed using oligonucleotides encoding fragments of IL-1, COX-2 and HPRT.
as §2
(§4) Reverse transcripts polymerase chain reactions. Total RNA was prepared from LPS-stimulated or control RAW 264 cells using the Rneasy Mini Kit according to the manufacturer's protocol. Total RNA was measured and 100 ng was reverse transcribed using Promega AMV reverse transcriptase (5 U/ml) with the oligonucleotides […] and […] TGA (coding for the IL-1 gene) and […] and […] (coding for the COX-2 gene). Conditions for PCR amplification of the resulting first-stand DNA template were 94° C. denaturing for 30 sec, 60° C. annealing for 1 min, 68° C. extension for 1 min, 30 cycles using thermostable Tf1 DNA polymerase (SU/ml), and 1 mM MgSO4.

In experiment [6] the test system is IL-1 mRNA. The experiment can be described thus: IL-1 gene transcription in RAW 264 macrophages, RT-PCR. In kind it is cell-based, mouse. The note with it: LPS 3 h, PD 98059 (50 TM), SB 203580 (10 TM), Ro 318220 (5 TM). The method, then: as §3, §2, §4
For experiment [7], the system named is HPRT mRNA. In words: HPRT housekeeping gene mRNA in RAW 264 macrophages, RT-PCR. Type of experiment: cell-based, mouse. The note with it: PD 98059 (50 TM), SB 203580 (10 TM), Ro 318220 (5 TM). The procedure: as §3, §2, §4

Turning to `COc1cccc(-c2cc(=O)c3ccccc3o2)c1N` [PD 98059], the “NGF-induced phosphorylation of CREB” value in experiment [1] is given as “not significantly affected”. Further, the “FGF-induced phosphorylation of CREB” value in experiment [2] is on record as “only inhibited slightly; also recorded: did not significantly suppress”. Further, the “LPS-stimulated phosphorylation of MSK1” value in experiment [3] was “appear to inhibit”. The “LPS-stimulated induction of COX-2 protein” value (“LPS-stimulated induction” below) in experiment [4] was “partially inhibited”. In addition, in experiment [5], the “LPS induction of COX-2 mRNA” value is “partially suppressed”. Moreover, the “LPS induction of IL-1 mRNA” value in experiment [6] is reported as “partially inhibited”. Further, the “mRNA encoding the housekeeping gene HPRT” value in experiment [7] is on record as “unaffected”.

In the case of `Cn1cc(C2=C(c3cn(CCCSC(=N)N)c4ccccc34)C(=O)NC2=O)c2ccccc21` [Ro 318220], the “NGF-induced phosphorylation of CREB” value in experiment [1] is given as “suppressed”. The “phosphorylation of CREB at Ser133” value in experiment [2] (sodium arsenite or FGF, 5 μM Ro 318220) is given as “largely suppressed”. The “LPS-induced activation of MSK1” value in experiment [3] is reported as “does not affect”. The “LPS-stimulated induction” value in experiment [4] is listed as “suppresses”. For the same compound, the “LPS induction of COX-2 mRNA” value in experiment [5] is “suppresses”. Besides, the “LPS induction of IL-1 mRNA” value in experiment [6] was “suppresses”. The “mRNA encoding the housekeeping gene HPRT” value in experiment [7] is “unaffected”.

As for `C[S+]([O-])c1ccc(-c2nc(-c3ccncc3)c(-c3ccc(F)cc3)[nH]2)cc1` (centres unmarked) [SB 203580], the “NGF-induced phosphorylation of CREB” value in experiment [1] was “not significantly affected”. The “FGF-induced phosphorylation of CREB” value in experiment [2] is recorded as “only inhibited slightly”. Also, in experiment [2] (50 μM PD 98059, 10 μM SB 203580, arsenite 0.5 mM 15 min), the “sodium arsenite-induced activation of CREB” value is “prevented”. In addition, in experiment [3], the “LPS-stimulated phosphorylation of MSK1” value is reported as “appear to inhibit” and the “LPS-induced activation of MSK1” value is “only inhibited partially”. Further, the “LPS-stimulated induction” value in experiment [4] is “partially inhibited”. Besides, the “LPS induction of COX-2 mRNA” value in experiment [5] is recorded as “partially suppressed”. In addition, in experiment [6], the “LPS induction of IL-1 mRNA” value is recorded as “partially inhibited”. Also, the “mRNA encoding the housekeeping gene HPRT” value in experiment [7] is reported as “unaffected”.
